Read-outs that look alike come from different tables or passages of the source.
How the values were obtained:
HUVECs = test: Tube formation (tubulogenesis) assay in HUVECs, 18 h; type: cell-based, human; conditions: Homo sapiens, HUVEC, 18 h, HUVECs tube formation; for activity at 0.01 µM: concentration 0.01 µM; for activity at 0.1 µM: concentration 0.10 µM; for activity at 1 µM: concentration 1.00 µM; for activity at 10 µM: concentration 10.00 µM; for activity at 100 µM: concentration 100.00 µM
Procedure, shortened: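 HUVECs (passage 1–5) seeded on reduced-growth-factor basement membrane and exposed to compounds overnight at 37°C, 5% CO2, in 2× maintenance medium with 12.5 ng/mL VEGF; 0.5% DMSO vehicle. Calcein AM-stained tube networks imaged and analysed; vehicle-normalized readouts fit to four-parameter logistic, POD set at one SD of vehicle means.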

[1] = tested on: iCell endothelial cells (human iPSC-derived ECs); test: Tube formation (tubulogenesis) assay in iCell endothelial cells, 18 h; type: cell-based; conditions: Homo sapiens, Endothelial cell, iPSC-EC; for activity at 0.1 µM: 0.10 µM; for minimal effective concentration: 100.00 = highest concentration tested
Procedure, shortened: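 iCell ECs (passages 1–5) seeded 7,500 cells/well on reduced-growth-factor Geltrex in starvation medium, exposed overnight at 37°C to compounds in triplicate concentration–response (0.5% DMSO vehicle). Calcein AM staining, 4× imaging, angiogenesis image analysis; readouts normalized to vehicle, four-parameter logistic fit, POD at 1 SD of vehicle; 100 μM assigned NOAEL if no response.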

[2] = 0.00 µM = 100.00, read-out: huvec.mtl.18hr
[3] = 0.00 µM = 100.00, read-out: huvec.tlps.18hr
[4] = 0.00 µM = 100.00, read-out: huvec.tta.18hr
[5] = 0.00 µM = 100.00, read-out: huvec.ttl.18hr
[6] = 0.00 µM = 100.00, read-out: endo.mtl.18hr
[7] = 0.00 µM = 100.00, read-out: endo.tlps.18hr
[8] = 0.00 µM = 100.00, read-out: endo.tta.18hr
[9] = 0.00 µM = 100.00, read-out: endo.ttl.18hr

Clc1ccc(Cl)c(-c2c(Cl)ccc(Cl)c2Cl)c1 [PCB95] showed a minimal effective concentration (HUVECs; MAX 100.00, read-out: huvec.mtl.18hr POD) of 8.29 µM, a minimal effective concentration (HUVECs; MAX 100.00, read-out: huvec.tlps.18hr POD) of 100 µM and a minimal effective concentration (HUVECs; MAX 100.00, read-out: huvec.tta.18hr POD) of 100 µM. For the same molecule, the minimal effective concentration (HUVECs; MAX 100.00, read-out: huvec.ttl.18hr POD) was 100 µM, the activity at 0.01 µM (HUVECs; [2]) was 96.9% and the activity at 0.01 µM (HUVECs; [3]) was 80.5%. The activity at 0.01 µM (HUVECs; [4]) was 75.1%, the activity at 0.01 µM (HUVECs; [5]) was 63% and the activity at 0.1 µM (HUVECs; [2]) was 82.7%. The activity at 0.1 µM (HUVECs; [3]) was 88.7%, the activity at 0.1 µM (HUVECs; [4]) was 71.1% and the activity at 0.1 µM (HUVECs; [5]) was 63.9%. For the same molecule, the activity at 1 µM (HUVECs; [2]) was 104%, the activity at 1 µM (HUVECs; [3]) was 86.3% and the activity at 1 µM (HUVECs; [4]) was 78.7%. It also gave an activity at 1 µM (HUVECs; [5]) of 68.7%, an activity at 10 µM (HUVECs; [2]) of 87.4% and an activity at 10 µM (HUVECs; [3]) of 88.9%. For the same molecule, the activity at 10 µM (HUVECs; [4]) was 84%, the activity at 10 µM (HUVECs; [5]) was 79.8% and the activity at 100 µM (HUVECs; [2]) was 72.8%. For the same molecule, the activity at 100 µM (HUVECs; [3]) was 64.1%, the activity at 100 µM (HUVECs; [4]) was 68.8% and the activity at 100 µM (HUVECs; [5]) was 61.4%. It also gave an activity at 0.01 µM [1, 6] of 111%, an activity at 0.01 µM [1, 7] of 84.5% and an activity at 0.01 µM [1, 8] of 111%. For the same molecule, the activity at 0.01 µM [1, 9] was 116%, the activity at 0.1 µM [1, 6] was 103% and the activity at 0.1 µM [1, 7] was 85.8%. It also gave an activity at 0.1 µM [1, 8] of 99%, an activity at 0.1 µM [1, 9] of 106% and an activity at 1 µM [1, 6] of 108%. The activity at 1 µM [1, 7] was 115%, the activity at 1 µM [1, 8] was 97.2% and the activity at 1 µM [1, 9] was 104%. It also gave an activity at 10 µM [1, 6] of 109%, an activity at 10 µM [1, 7] of 119% and an activity at 10 µM [1, 8] of 113%. The activity at 10 µM [1, 9] was 123%, the activity at 100 µM [1, 6] was 47% and the activity at 100 µM [1, 7] was 16%. For the same molecule, the activity at 100 µM [1, 8] was 8.76%, the activity at 100 µM [1, 9] was 11% and the minimal effective concentration ([1]; read-out: endo.mtl.18hr POD) was 48.6 µM. For the same molecule, the minimal effective concentration ([1]; read-out: endo.tlps.18hr POD) was 53.9 µM, the minimal effective concentration ([1]; read-out: endo.tta.18hr POD) was 48.7 µM and the minimal effective concentration ([1]; read-out: endo.ttl.18hr POD) was 55.7 µM.

From paper PMC7377239, “Cardiovascular Effects of Polychlorinated Biphenyls and Their Major Metabolites” (Environmental Health Perspectives, 2020)
